In brackets after ≈: the same amount, converted by molar mass. Where two headings read alike, the source gives them in different places. Blank lines part the entries; values can stand above or below the compound they belong to.
Tests used:
[1] = biological target: 18S ribosomal subunit RNA target; experiment: Mass spectrometry based binding assay (FTICR), 18S
Protocol: (§1) In a typical experiment, 10 μL of an aqueous solution containing 100 mM ammonium acetate buffer, 2.5 or 5 μM of each RNA, and 33% isopropyl alcohol (to aid ion desolvation) was prepared with different concentrations of each ligand or ligand mixture Samples were introduced into the electrospray ionization source (negative ionization mode) at 1 μL/min and ions were stored for 1 sec in an RF-only hexapole following desolvation. The abundances were integrated from the respective ions for free RNA and the ligand-RNA complex. The primary (1:1 RNA:ligand) and secondary (1:2 complex, if observed). […] The peak ratios were measured at each concentration, then a plot of complex/free RNA versus concentration of ligand added was fitted to a second (or higher) order binding polynomial to determine the KD.

[2] = biological target: 16S ribosomal subunit RNA target; experiment: Mass spectrometry based binding assay (FTICR), 16S
Protocol: as §1, with “[…],” for “2.5 or 5 μM of each RNA,”

[3] = test system: E. coli S30 bacterial extract (pBestLuc firefly luciferase reporter); experiment: Coupled bacterial transcription/translation assay; assay type: biochemical; settings: read-out: Trans/Trans IC50
Protocol: The DNA template, pBestLuc™ (Promega), is a plasmid containing a reporter gene for firefly luciferase fused to a strong tac promoter and ribosome binding site. Messenger RNA from 1 μg pBestLuc is transcribed and translated in E. coli S30 bacterial extract in the presence or absence of test compound. Compounds are tested in a black 96 well microtiter plate with an assay volume of 35 μL. […] The transcription/translation reaction is incubated for 35 minutes at 37° C. followed by detection of functional luciferase with the addition of 30 μL LucLite™ (Packard). Light output is quantitated on a Packard TopCount.

E. Coli = experiment: MIC, E. Coli; assay type: cell-based
Protocol: (§2) The MIC assays are carried out in 150 μL volume in duplicate in 96-well clear flat-bottom plates. The bacterial suspension from an overnight culture growth in appropriate medium is added to a solution of test compound in 4% DMSO in water. Final bacterial inoculum is approximately 10^5-10^6 CFU/well. […] Both ampicillin and tetracycline are used as antibiotic-positive controls in each screening assay for S. pyogenes, E. coli imp-, E. coli, S. aureus, E. faecalis, K. pneumoniae and P. vulgaris. Ciprofloxacin is used as an antibiotic positive control in each screening assay for P. aeruginosa.

S. Aureus = experiment: MIC, S. Aureus; assay type: cell-based
Protocol: as §2

[4] = test system: Staphylococcus aureus (Smith Strain ATCC 13709); experiment: Staphylococcus aureus mouse protection assay; assay type: in vivo, mice; settings: Staph Conc. 10^6, 10% Mucin, the 13th table
Protocol: Two of the novel aminoglycoside compounds of the invention were examined for their anitbacterial activity against staphylococcus aureus. Mice were fed with autoclaved commercial food pellets and sterile water ad libitum. Animals were inoculated intraperitoneally with 0.5 mL/mouse of the indicated concentration of S. aureus (ATCC 13709) containing 10% mucin. There were 10 mice in each treatment group and compounds were administered subcutaneously one and 3 hour after infection. Compounds 15a (R4═R5═CH3) and 15j (R4═H, R5═(CH2)2C6H5)) were used at 75 mg/kg, 37.5 mg/kg, 18.8 mg/kg, 9.4 mg/kg, 4.7 mg/kg, 2.3 mg/kg, 1.17 mg/kg and 0.5 mg/kg. Amakacin, paromomycin and neomycin were used as the positive controls at concentrations of 2 mg/kg, 1 mg/kg and 0.5 mg/kg.
Test compound was administered as an aqueous buffer solution (phosphate buffered saline (PBS), pH=7.4).

E. coli ATCC 25922 = experiment: MIC, E. coli ATCC 25922; assay type: cell-based; settings: for MIC: Escherichia coli
Protocol: as §2
(§3) The following compounds were prepared using methods illustrated in the previous examples. The compounds were also examined in standard bacterial assays against E. Coli, S. Aureus, P. aurginosa, K. pneumoniae, P. vulgaris, and A. baumannii to determine activities. Each of the bacterial cultures that are available from ATCC (www.atcc.org) is identified by its ATCC number. A. baumannii is gentamicin sensitive Acinetobacter baumannii #2 from Walter Reed.

S. aureus ATCC 13709 = experiment: MIC, S. aureus ATCC 13709; assay type: cell-based; settings: for MIC: Staphylococcus aureus
Protocol: as §2, §3

P. aurginosa ATCC 25416 = experiment: MIC, P. aurginosa ATCC 25416; assay type: cell-based
Protocol: as §2, §3

P. aurginosa ATCC 29248 = experiment: MIC, P. aurginosa ATCC 29248; assay type: cell-based
Protocol: as §2, §3

K. pneumoniae ATCC 10031 = experiment: MIC, K. pneumoniae ATCC 10031; assay type: cell-based; settings: for MIC: Klebsiella pneumoniae
Protocol: as §2, §3

P. vulgaris ATCC 8427 = experiment: MIC, P. vulgaris ATCC 8427; assay type: cell-based; settings: for MIC: Proteus vulgaris
Protocol: as §2, §3

[5] = test system: gentamicin sensitive Acinetobacter baumannii #2 from Walter Reed; experiment: MIC, A. baumannii WReed 2; assay type: cell-based; settings: for MIC: Acinetobacter baumannii
Protocol: as §2, §3

SMILES: CN(C)CC1OC(OC2C(N)CC(N)C(O)C2OC2OC(CO)C(OC3OC(CN)C(O)C(O)C3N)C2O)C(N)C(O)C1O (stereo not shown) [Compound 15a]
Kd ([1]; Example 108): 700 nM
Kd ([2]; Example 108): 600 nM
IC50 ([3]; Example 108): 300 nM
MIC E. Coli. (E. Coli; Example 108): 3 to 6 µM
MIC S. Aureus (S. Aureus; Example 108): 2 to 3 µM
# Dead mice/Total mice in group ([4]; 0.5 mg/kg subcutaneously): 8/10
# Dead mice/Total mice in group ([4]; 1 mg/kg subcutaneously): 7/10
# Dead mice/Total mice in group ([4]; 2 mg/kg subcutaneously): 7/10
# Dead mice/Total mice in group ([4]; 4.5 mg/kg subcutaneously): 1/10
# Dead mice/Total mice in group ([4]; 9 mg/kg subcutaneously): 0/10
# Dead mice/Total mice in group ([4]; 18 mg/kg subcutaneously): 0/10
# Dead mice/Total mice in group ([4]; 37 mg/kg subcutaneously): 0/10
# Dead mice/Total mice in group ([4]; 75 mg/kg subcutaneously one and 3 hour after infection, intraperitoneal): 0/10

SMILES: NCC1OC(OC2C(CO)OC(OC3C(O)C(N)CC(N)C3OC3OC(CNCCc4cccc(C(F)(F)F)c4)C(O)C(O)C3N)C2O)C(N)C(O)C1O (stereo not shown) [Compound 15u]
MIC E. coli ATCC 25922 (E. coli ATCC 25922; Example 111): 1.3 to 2.5 µM
MIC S. aureus ATCC 13709 (S. aureus ATCC 13709; Example 111): 0.3 to 0.6 µM
MIC P. aurginosa ATCC 25416 (P. aurginosa ATCC 25416; Example 111): >40 µM
MIC P. aurginosa ATCC 29248 (P. aurginosa ATCC 29248; Example 111): >40 µM
MIC K. pneumoniae ATCC 10031 (K. pneumoniae ATCC 10031; Example 111): 0.6 to 1.3 µM
MIC P. vulgaris ATCC 8427 (P. vulgaris ATCC 8427; Example 111): >40 µM
MIC A. baumannii WReed 2 ([5]; Example 111): 10 to 20 µM

MIC (E. coli ATCC 25922; ATCC25922, Example 110): 0.6 to 1.3 µM (≈ 0.518 to 1.12 µg/mL)
MIC (E. coli ATCC 25922; ATCC25922, Example 111): 1.3 to 2.5 µM (≈ 1.12 to 2.16 µg/mL)
MIC (S. aureus ATCC 13709; ATCC13709, Example 110): 0.6 to 1.2 µM (≈ 0.518 to 1.04 µg/mL)
MIC (S. aureus ATCC 13709; ATCC13709, Example 111): 0.2 to 0.3 µM (≈ 0.173 to 0.259 µg/mL)
MIC (P. aurginosa ATCC 25416; Example 110): 0.6 to 1.3 µM (≈ 0.518 to 1.12 µg/mL)
MIC (P. aurginosa ATCC 25416; Example 111): 10 to 20 µM (≈ 8.64 to 17.3 µg/mL)
MIC (P. aurginosa ATCC 29248; Example 110): 1.3 to 2.5 µM (≈ 1.12 to 2.16 µg/mL)
MIC (P. aurginosa ATCC 29248; Example 111): 5 to 10 µM (≈ 4.32 to 8.64 µg/mL)
MIC (K. pneumoniae ATCC 10031; ATCC10031, Example 110): < 0.6 µM
MIC (K. pneumoniae ATCC 10031; ATCC10031, Example 111): 0.3 to 0.6 µM (≈ 0.259 to 0.518 µg/mL)
MIC (P. vulgaris ATCC 8427; ATCC8427, Example 110): 0.6 to 1.3 µM (≈ 0.518 to 1.12 µg/mL)
MIC (P. vulgaris ATCC 8427; ATCC8427, Example 111): 5 to 10 µM (≈ 4.32 to 8.64 µg/mL)
MIC ([5]; Example 110): 0.6 to 1.3 µM (≈ 0.518 to 1.12 µg/mL)
MIC ([5]; Example 111): 10 to 20 µM (≈ 8.64 to 17.3 µg/mL)
SMILES: NCC[C@H](O)C(=O)N[C@@H]1C[C@H](N)[C@@H](O[C@H]2O[C@H](CO)[C@@H](O)[C@H](O)[C@H]2N)[C@H](O[C@@H]2O[C@H](CO)[C@@H](O[C@H]3O[C@@H](CN)[C@@H](O)[C@H](O)[C@H]3N)[C@H]2OCCNCCc2ccccc2)[C@H]1O [Compound 46a, N-1-haba-2″-O-phenylethylaminoethyl paromomycin]

MIC (E. coli ATCC 25922; ATCC25922, Example 110): 5 to 10 µM (≈ 4.08 to 8.17 µg/mL)
MIC (S. aureus ATCC 13709; ATCC13709, Example 110): 1.2 to 2.5 µM (≈ 0.98 to 2.04 µg/mL)
MIC (P. aurginosa ATCC 25416; Example 110): 1.3 to 2.5 µM (≈ 1.06 to 2.04 µg/mL)
MIC (P. aurginosa ATCC 29248; Example 110): 5 to 10 µM (≈ 4.08 to 8.17 µg/mL)
MIC (K. pneumoniae ATCC 10031; ATCC10031, Example 110): 1.3 to 2.5 µM (≈ 1.06 to 2.04 µg/mL)
MIC (P. vulgaris ATCC 8427; ATCC8427, Example 110): 5 to 10 µM (≈ 4.08 to 8.17 µg/mL)
MIC ([5]; Example 110): 2.5 to 5 µM (≈ 2.04 to 4.08 µg/mL)
SMILES: NCCCNCCO[C@H]1[C@H](O[C@@H]2[C@@H](O)[C@H](NC(=O)[C@@H](O)CCN)C[C@H](N)[C@H]2O[C@H]2O[C@H](CO)[C@@H](O)[C@H](O)[C@H]2N)O[C@H](CO)[C@H]1O[C@H]1O[C@@H](CN)[C@@H](O)[C@H](O)[C@H]1N [Compound 46b, N-1-haba-2″-O-(1,3-diamino)ethyl paromomycin]

SMILES: CN(C)CCOC[C@H]1O[C@@H](O[C@@H]2[C@@H](O)[C@H](N)C[C@H](N)[C@H]2O[C@H]2O[C@H](CO)[C@@H](O)[C@H](O)[C@H]2N)[C@H](O)[C@@H]1O[C@H]1O[C@@H](CN)[C@@H](O)[C@H](O)[C@H]1N [Compound 54, 5″-O-(2-N,N-dimethylaminoethyl) paromomycin]
Kd ([1]; FTICR mass spectrometry, Example 105): 68000 nM
Kd ([2]; FTICR mass spectrometry, run at 100 nM RNA, Example 105): 4100 nM
IC50 ([3]; Example 105): 300 nM
MIC E. Coli. (E. Coli; Example 105): 6 to 12 µM
MIC S. Aureus (S. Aureus; Example 105): 25 to 50 µM

From patent US8569264B2, “Antibacterial 4,5-substituted aminoglycoside analogs having multiple substituents” (ISIS Pharmaceuticals, Inc., priority 2005, dated 2013)
